According to patent US12673970B2, “Neuroactive steroids and their methods of use” (priority 2020, dated 2026):

Key:
[1] = molecular target: GABAA receptor ([35S]-TBPS binding, rat brain cortical membranes); assay: Steroid inhibition of [35S]-TBPS binding; details: 3 nM [35S]-TBPS, in the presence of 5 mM GABA
Description: [35S]-t-Butylbicyclophosphorothionate (TBPS) binding assays using rat brain cortical membranes in the presence of 5 mM GABA has been described (Gee et al, J. Pharmacol. Exp. Ther. 1987, 241, 346-353; Hawkinson et al, Mol. Pharmacol. 1994, 46, 977-985; Lewin, A. H et al., Mol. Pharmacol. 1989, 35, 189-194).
Briefly, cortices are rapidly removed following decapitation of carbon dioxide-anesthetized Sprague-Dawley rats (200-250 g). The cortices are homogenized in 10 volumes of ice-cold 0.32 M sucrose using a glass/teflon homogenizer and centrifuged at 1500×g for 10 min at 4° C. The resultant supernatants are centrifuged at 10,000×g for 20 min at 4° C. to obtain the P2 pellets. The P2 pellets are resuspended in 200 mM NaCl/50 mM Na—K phosphate pH 7.4 buffer and centrifuged at 10,000×g for 10 min at 4° C. This washing procedure is repeated twice and the pellets are resuspended in 10 volumes of buffer. Aliquots ([…]) of the membrane suspensions are incubated with 3 nM [35S]-TBPS and 5 mL aliquots of test drug dissolved in dimethyl sulfoxide (DMSO) (final 0.5%) in the presence of 5 mM GABA. The incubation is brought to a final volume of 1.0 mL with buffer. Nonspecific binding is determined in the presence of […] and ranged from 15 to 25%. Following a 90 min incubation at room temp, the assays are terminated by filtration through glass fiber filters (Schleicher and Schuell No. 32) using a cell harvester (Brandel) and rinsed three times with ice-cold buffer. Filter bound radioactivity is measured by liquid scintillation spectrometry. Non-linear curve fitting of the overall data for each drug averaged for each concentration is done using Prism (GraphPad). […] The concentration of test compound producing 50% inhibition (IC50) of specific binding and the maximal extent of inhibition (Imax) are determined for the individual experiments with the same model used for the overall data and then the means±SEM.s of the individual experiments are calculated.
Various compounds are or can be screened to determine their potential as modulators of [35S]-TBPS binding in vitro. These assays are or can be performed in accordance with the above

[2] = test system: GABAA receptor ([35S]-TBPS binding, rat brain cortical membranes); details: statement on the positive control; cited from earlier work

Compound | IC50 [1] [nM] | inhibition of TBPS binding (positive control) [2]
C[C@@]1(O)CC[C@H]2[C@@H](CC[C@@H]3[C@@H]2CC[C@]2(C)[C@@H](C(=O)CCn4cc(C#N)cn4)CC[C@@H]32)C1 [Example 1, 1-(3-((3R,5S,8R,9R,10S,13S,14S,17S)-3-hydroxy-3,13-dimethylhexadecahydro-1H-cyclopenta[a]phenanthren-17-yl)-3-oxopropyl)-1H-pyrazole-4-carbonitrile] | < 100 | –
COC[C@@]1(O)CC[C@H]2[C@@H](CC[C@@H]3[C@@H]2CC[C@]2(C)[C@@H](C(=O)CCn4cc(C#N)cn4)CC[C@@H]32)C1 [Example 2, 1-(3-((3R,5S,8R,9R,10S,13S,14S,17S)-3-hydroxy-3-(methoxymethyl)-13-methylhexadecahydro-1H-cyclopenta[a]phenanthren-17-yl)-3-oxopropyl)-1H-pyrazole-4-carbonitrile] | < 100 | –
C[C@@]1(O)CC[C@H]2[C@H](CC[C@@H]3[C@@H]2CC[C@]2(C)[C@@H](C(=O)CCCn4cc(C#N)cn4)CC[C@@H]32)C1 [Example 3, 1-(4-((3R,5R,8R,9R,10S,13S,14S,17S)-3-hydroxy-3,13-dimethylhexadecahydro-1H-cyclopenta[a]phenanthren-17-yl)-4-oxobutyl)-1H-pyrazole-4-carbonitrile] | < 100 | –
C[C@@]1(O)CC[C@H]2[C@H](CC[C@@H]3[C@@H]2CC[C@]2(C)[C@@H](C(=O)CCCCn4cc(C#N)cn4)CC[C@@H]32)C1 [Example 4, 1-(5-((3R,5R,8R,9R,10S,13S,14S,17S)-3-hydroxy-3,13-dimethylhexadecahydro-1H-cyclopenta[a]phenanthren-17-yl)-5-oxopentyl)-1H-pyrazole-4-carbonitrile] | < 100 | –
C[C@@]1(O)CC[C@H]2[C@H](CC[C@@H]3[C@@H]2CC[C@]2(C)[C@@H](CC(=O)Cn4cc(C#N)cn4)CC[C@@H]32)C1 [Example 5, 1-(3-((3R,5R,8R,9R,10S,13R,14S,17R)-3-hydroxy-3,13-dimethylhexadecahydro-1H-cyclopenta[a]phenanthren-17-yl)-2-oxopropyl)-1H-pyrazole-4-carbonitrile] | 100 to 1000 | –
CC(C)(C(=O)C[C@H]1CC[C@H]2[C@@H]3CC[C@@H]4C[C@](C)(O)CC[C@@H]4[C@H]3CC[C@]12C)n1cc(C#N)cn1 [Example 7, 1-(4-((3R,5R,8R,9R,10S,13R,14S,17R)-3-hydroxy-3,13-dimethylhexadecahydro-1H-cyclopenta[a]phenanthren-17-yl)-2-methyl-3-oxobutan-2-yl)-1H-pyrazole-4-carbonitrile] | 100 to 1000 | –
C[C@H](C(=O)C[C@H]1CC[C@H]2[C@@H]3CC[C@@H]4C[C@](C)(O)CC[C@@H]4[C@H]3CC[C@]12C)n1cc(C#N)cn1 [Example 8, 1-((R)-4-((3R,5R,8R,9R,10S,13R,14S,17R)-3-hydroxy-3,13-dimethylhexadecahydro-1H-cyclopenta[a]phenanthren-17-yl)-3-oxobutan-2-yl)-1H-pyrazole-4-carbonitrile] | 100 to 1000 | –
C[C@@H](C(=O)C[C@H]1CC[C@H]2[C@@H]3CC[C@@H]4C[C@](C)(O)CC[C@@H]4[C@H]3CC[C@]12C)n1cc(C#N)cn1 [Example 9, 1-((S)-4-((3R,5R,8R,9R,10S,13R,14S,17R)-3-hydroxy-3,13-dimethylhexadecahydro-1H-cyclopenta[a]phenanthren-17-yl)-3-oxobutan-2-yl)-1H-pyrazole-4-carbonitrile] | 100 to 1000 | –
C[C@H](C(=O)Cn1cc(C#N)cn1)[C@H]1CC[C@H]2[C@@H]3CC[C@@H]4C[C@](C)(O)CC[C@@H]4[C@H]3CC[C@]12C [Example 10, 1-((S)-3-((3R,5R,8R,9R,10S,13S,14S,17R)-3-hydroxy-3,13-dimethylhexadecahydro-1H-cyclopenta[a]phenanthren-17-yl)-2-oxobutyl)-1H-pyrazole-4-carbonitrile] | < 100 | –
C[C@@H](C(=O)Cn1cc(C#N)cn1)[C@H]1CC[C@H]2[C@@H]3CC[C@@H]4C[C@](C)(O)CC[C@@H]4[C@H]3CC[C@]12C [Example 11, 1-((R)-3-((3R,5R,8R,9R,10S,13S,14S,17R)-3-hydroxy-3,13-dimethylhexadecahydro-1H-cyclopenta[a]phenanthren-17-yl)-2-oxobutyl)-1H-pyrazole-4-carbonitrile] | 100 to 1000 | –
C[C@@]1(O)CC[C@H]2[C@H](CC[C@@H]3[C@@H]2CC[C@]2(C)[C@@H](CC(=O)c4ccc(C#N)cc4)CC[C@@H]32)C1 [Example 12, 4-(2-((3R,5R,8R,9R,10S,13R,14S,17R)-3-hydroxy-3,13-dimethylhexadecahydro-1H-cyclopenta[a]phenanthren-17-yl)acetyl)benzonitrile] | < 100 | –
COC[C@@]1(O)CC[C@@]2(C)[C@H](CC[C@@H]3[C@@H]2CC[C@]2(C)[C@@H](C(=O)CCn4cc(C#N)cn4)CC[C@@H]32)C1 [Example 13, 1-(3-((3R,5R,8R,9S,10S,13S,14S,17S)-3-hydroxy-3-(methoxymethyl)-10,13-dimethylhexadecahydro-1H-cyclopenta[a]phenanthren-17-yl)-3-oxopropyl)-1H-pyrazole-4-carbonitrile] | < 100 | –
Picrotoxin | – | robustly inhibit TBPS binding
